Assay results: article PMC10141580, “Cyclic Dichalcogenides Extend the Reach of Bioreductive Prodrugs to Harness Thiol/Disulfide Oxidoreductases: Applications to seco-Duocarmycins Targeting the Thioredoxin System” (ACS Central Science, 2023)
Read-outs that look alike come from different tables or passages of the source.

Test system: panel of 140 standard cancer cell lines
Test: ProliFiler-140 cancer cell line screen (CellTiterGlo, 72 h)
Format: cell-based
Details: read-out: IC50 [M] (ProliFiler-140)
Protocol: Incubations were performed for 72 h before automated viability readout with CellTiterGlo (Figure 8).
End of Figure S11 (part 5 of 5): ProliFiler-140 cancer cell line screening for cytotoxicity of the prodrugs.
8-data-point dose response curves from CellTiter-Glo® viability readout.
ProliFiler-140 cell line panel part V

IC50 (MCAS (Ovary), listed as Dox): 1.13e-07 M | IC50 (MCAS (Ovary)): 1.1e-07 M | IC50 (MDA MB 435 (Skin), listed as Dox): 4.83e-07 M | IC50 (MDA-MB-468 (Breast), listed as Dox): 4.71e-08 M | IC50 (MEC-1 (Blood), listed as Dox): 7.33e-08 M | IC50 (MKN-1 (Stomach), listed as Dox): 5.25e-08 M | IC50 (MOLM-13 (Blood), listed as Dox): 2.12e-08 M | IC50 (MV4-11 (Blood), listed as Dox): 4.26e-09 M | IC50 (Mia PaCA 2 (Pancreas), listed as Dox): 7.4e-08 M | IC50 (NCI-H82 (Lung), listed as Dox): 6.24e-07 M | IC50 (NCI-H292 (Lung), listed as Dox): 7.17e-08 M | IC50 (NCI-H838 (Lung), listed as Dox): 1.51e-07 M | IC50 (NCI-H1563 (Lung), listed as Dox): 5.43e-07 M | IC50 (NCI-H1573 (Lung), listed as Dox): 2.97e-06 M | IC50 (NCI-H1703 (Lung), listed as Dox): 9.24e-08 M | IC50 (NCI-H1838 (Lung), listed as Dox): 2.52e-07 M | IC50 (NCI-H2110 (Lung), listed as Dox): 3.55e-08 M | IC50 (NCI-H2110, NCI-H2110 (Lung)): 3.6e-08 M | IC50 (NCI-H2286 (Lung), listed as Dox): 4.39e-08 M | IC50 (OCI-AML5 (Blood), listed as Dox): 3.09e-08 M | IC50 (OCI-LY19 (Blood), listed as Dox): 5.5e-09 M | IC50 (OPM-2 (Blood), listed as Dox): 2.4e-07 M | IC50 (OV56, OV56 (Ovary)): 2.02e-07 M | IC50 (OVCAR-3 (Ovary), listed as Dox): 3.73e-07 M | IC50 (OVK18 (Ovary), listed as Dox): 3.4e-08 M | IC50 (OVK18, OVK18 (Ovary)): 3.42e-08 M | IC50 (P31/FUJ (Blood), listed as Dox): 1.02e-07 M | IC50 (PANC-1 (Pancreas), listed as Dox): 8.01e-07 M | IC50 (PC3 (Prostate), listed as Dox): 7.4e-07 M | IC50 (PC3 (Prostate)): 7.38e-07 M | IC50 (PC-9 (Lung), listed as Dox): 1.92e-07 M | IC50 (PC-9 (Lung)): 1.9e-07 M | IC50 (RERF-LC-Ad2, RERF-LC-Ad2 (Lung)): 4.6e-07 M | IC50 (RERF-LC-MS (Lung), listed as Dox): 1.7e-07 M | IC50 (RERF-LC-MS (Lung)): 1.74e-07 M | IC50 (RKO (Colon), listed as Dox): 9.9e-08 M | IC50 (RKO (Colon)): 9.86e-08 M | IC50 (RPMI 8226 (Blood), listed as Dox): 8.8e-08 M | IC50 (SCH (Stomach), listed as Dox): 1.38e-07 M | IC50 (SCH (Stomach)): 1.4e-07 M | IC50 (SK-BR-3 (Breast), listed as Dox): 1.28e-07 M | IC50 (SK-LU-1 (Lung), listed as Dox): 2.67e-07 M | IC50 (SK-MEL-3 (Skin), listed as Dox): 5.12e-07 M | IC50 (SK-N-FI (Brain), listed as Dox): 1.4e-06 M | IC50 (SK-N-MC (Brain), listed as Dox): 1.47e-08 M | IC50 (SK-N-SH (Brain), listed as Dox): 9.82e-08 M | IC50 (SK-OV3 (Ovary), listed as Dox): 1.8e-07 M | IC50 (SNU-1 (Stomach), listed as Dox): 5.88e-08 M | IC50 (SNU-216, SNU-216 (Stomach)): 3.9e-07 M | IC50 (SNU-840, SNU840 (Ovary)): 1.33e-07 M | IC50 (SU-DHL-5 (Blood), listed as Dox): 9.15e-09 M | IC50 (SW-1783 (Brain), listed as Dox): 3e-07 M | IC50 (T84 (Colon), listed as Dox): 1.4e-06 M | IC50 (T84 (Colon)): 1.35e-06 M | IC50 (T-47D (Breast), listed as Dox): 4.35e-07 M | IC50 (U87MG (Brain), listed as Dox): 1.62e-07 M | IC50 (U118MG (Brain), listed as Dox): 2.6e-07 M | IC50 (U251MG (Brain), listed as Dox): 7.84e-07 M
SMILES: COc1cccc2c1C(=O)c1c(O)c3c(c(O)c1C2=O)C[C@@](O)(C(=O)CO)C[C@@H]3O[C@H]1C[C@H](N)[C@H](O)[C@H](C)O1 [doxorubicin, reference compound]
